Laboratory results published in patent EP0535269A1, “Pharmaceutical compositions containing thiazolidinedione derivatives” (TANABE SEIYAKU CO., LTD., priority 1991, dated 1993).

Assay: Bioavailability of a solution in a water-soluble polymer: plasma levels after oral administration
Format: in vivo
Settings: dogs, control formulation: untreated original drug (20 µm) with equal amount of corn starch in gelatin capsule, 100 mg/Dog, HPLC (Fig. 4)
Protocol: 5-[(2,4-dioxothiazolidin-5-yl)methyl]-2-[(2-naphthyl)methyl]benzoxazole (3 g) was dissolved in polyethyleneglycol (average molecule weight: approximately 380-420, trade name: Macrogol-400, Sanyo Chemical Industries Ltd.) (100 ml) to provide the preparation of the present invention. Mixture of an equal amount of untreated original drug (particle size: 20 µm) and corn starch was encapsulated in a gelatin capsule to give a formulation used as a control.
Four dogs (10 - 15 kg) were used in this experiment. The preparation of the invention was administered to dogs orally at the dose of 10 mg/Dog. In the separate experiment, the control formulation was administered at 100 mg/Dog. The blood was taken from the dogs and the concentration of the active compound (I) in the plasma sample was assayed in the same manner as described in the above. The time-course of the plasma levels of the drug was plotted.
In the figure, closed circles represent the average plasma levels of the compound (I) following the administration of the solution of the invention, and semi-closed circles represent those following the administration of untreated original drug.

With `O=C1NC(=O)C(Cc2ccc3oc(Cc4ccc5ccccc5c4)nc3c2)S1` (stereo not shown) [raw material, 5-[(2,4-dioxothiazolidin-5-yl)methyl]-2-[(2-naphthyl)methyl]benzoxazole] the “plasma levels of the compound (I)” value was “extremely low”.
